Measurements: PubChem BioAssay AID2060508 (Molecular Pharmacology Branch, DTP, NCI, 2025)

Test system: 454973-116-R2-J3-PDC spheroids, viability, % test/control
Test: Anticancer human tumor 454973-116-R2-J3-PDC patient-derived pancreatic carcinoma cell line growth inhibition [GQUAD]
Details: spheroids with HUVEC and MSC; for IC50: curve of first compound; for viability, T/C: stronger effect = lower value
Summary of the method: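 Viability of tumor cells grown as complex spheroids with endothelial and stromal cells, exposed to drug combinations. Top concentration at or near clinical Cmax (else 10 microM), diluted in half-log increments.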

[1] = second compound 0.0316 µM, first compound 0.0316 µM
[2] = second compound 0.0316 µM, first compound 0.1 µM
[3] = second compound 0.0316 µM, first compound 0.316 µM
[4] = second compound 0.0316 µM, first compound 1 µM
[5] = second compound 0.0316 µM, first compound 3.16 µM
[6] = second compound 0.0316 µM, first compound 10 µM
[7] = second compound 0.1 µM, first compound 0.0316 µM
[8] = second compound 0.1 µM, first compound 0.1 µM
[9] = second compound 0.1 µM, first compound 0.316 µM
[10] = second compound 0.1 µM, first compound 1 µM
[11] = second compound 0.1 µM, first compound 3.16 µM
[12] = second compound 0.1 µM, first compound 10 µM
[13] = second compound 0.316 µM, first compound 0.0316 µM
[14] = second compound 0.316 µM, first compound 0.1 µM
[15] = second compound 0.316 µM, first compound 0.316 µM
[16] = second compound 0.316 µM, first compound 1 µM
[17] = second compound 0.316 µM, first compound 3.16 µM
[18] = second compound 0.316 µM, first compound 10 µM
[19] = second compound 1 µM, first compound 0.0316 µM
[20] = second compound 1 µM, first compound 0.1 µM
[21] = second compound 1 µM, first compound 0.316 µM
[22] = second compound 1 µM, first compound 1 µM
[23] = second compound 1 µM, first compound 3.16 µM
[24] = second compound 1 µM, first compound 10 µM
[25] = second compound 3.16 µM, first compound 0.0316 µM
[26] = second compound 3.16 µM, first compound 0.1 µM
[27] = second compound 3.16 µM, first compound 0.316 µM
[28] = second compound 3.16 µM, first compound 1 µM
[29] = second compound 3.16 µM, first compound 3.16 µM
[30] = second compound 3.16 µM, first compound 10 µM
[31] = second compound 10 µM, first compound 0.0316 µM
[32] = second compound 10 µM, first compound 0.1 µM
[33] = second compound 10 µM, first compound 0.316 µM
[34] = second compound 10 µM, first compound 1 µM
[35] = second compound 10 µM, first compound 3.16 µM
[36] = second compound 10 µM, first compound 10 µM
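Note: spheroids exposed to compounds for seven days.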
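Throughout, for viability, T/C: 100% = DMSO vehicle control viability.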

O=c1[nH]cc(F)c(=O)[nH]1 + Cc1cnc(CNC(=O)c2c(=O)c3ccc(N4CCCN(C)CC4)nc3n3c2sc2ccccc23)cn1
IC50 (second compound 0.0316 µM): 1.64 µM | IC50 (second compound 0.1 µM): 2.2 µM | IC50 (second compound 0.316 µM): > 10 µM | IC50 (second compound 1 µM): > 10 µM | IC50 (second compound 3.16 µM): > 10 µM | IC50 (second compound 10 µM): < 0.0316 µM | viability, T/C [1]: 103% | viability, T/C [2]: 92.6% | viability, T/C [3]: 98.9% | viability, T/C [4]: 59.6% | viability, T/C [5]: 33.9% | viability, T/C [6]: 40.7% | viability, T/C [7]: 89.7% | viability, T/C [8]: 90.1% | viability, T/C [9]: 78.6% | viability, T/C [10]: 66.3% | viability, T/C [11]: 37.9% | viability, T/C [12]: 44.8% | viability, T/C [13]: 73.8% | viability, T/C [14]: 84.2% | viability, T/C [15]: 78.1% | viability, T/C [16]: 60.2% | viability, T/C [17]: 46.5% | viability, T/C [18]: 53.8% | viability, T/C [19]: 66.8% | viability, T/C [20]: 67.2% | viability, T/C [21]: 79.4% | viability, T/C [22]: 60.7% | viability, T/C [23]: 50.1% | viability, T/C [24]: 52.3% | viability, T/C [25]: 62.1% | viability, T/C [26]: 64.4% | viability, T/C [27]: 64.2% | viability, T/C [28]: 57.3% | viability, T/C [29]: 59.3% | viability, T/C [30]: 53.9% | viability, T/C [31]: 0.72% | viability, T/C [32]: 17.2% | viability, T/C [33]: 52.7% | viability, T/C [34]: 48% | viability, T/C [35]: 18.3% | viability, T/C [36]: 0.22%

O=C(c1cc(Cc2n[nH]c(=O)c3ccccc23)ccc1F)N1CCN(C(=O)C2CC2)CC1 + Cc1[nH]c2ccc(F)cc2c1-c1nc2c3cccnc3c3ncccc3c2[nH]1
IC50 (second compound 0.0316 µM): > 10 µM | IC50 (second compound 0.1 µM): > 10 µM | IC50 (second compound 0.316 µM): > 10 µM | IC50 (second compound 1 µM): > 10 µM | IC50 (second compound 3.16 µM): > 10 µM | IC50 (second compound 10 µM): > 10 µM | viability, T/C [1]: 98.5% | viability, T/C [2]: 89.7% | viability, T/C [3]: 101% | viability, T/C [4]: 100% | viability, T/C [5]: 79.8% | viability, T/C [6]: 60.8% | viability, T/C [7]: 109% | viability, T/C [8]: 97.3% | viability, T/C [9]: 93.2% | viability, T/C [10]: 94.6% | viability, T/C [11]: 94.9% | viability, T/C [12]: 58.1% | viability, T/C [13]: 97.6% | viability, T/C [14]: 103% | viability, T/C [15]: 93% | viability, T/C [16]: 91.7% | viability, T/C [17]: 77.6% | viability, T/C [18]: 58.1% | viability, T/C [19]: 97.2% | viability, T/C [20]: 99.8% | viability, T/C [21]: 87.5% | viability, T/C [22]: 88% | viability, T/C [23]: 75.8% | viability, T/C [24]: 65.5% | viability, T/C [25]: 87.4% | viability, T/C [26]: 107% | viability, T/C [27]: 84% | viability, T/C [28]: 87.7% | viability, T/C [29]: 77.6% | viability, T/C [30]: 63.3% | viability, T/C [31]: 94.1% | viability, T/C [32]: 81.4% | viability, T/C [33]: 90.9% | viability, T/C [34]: 79.6% | viability, T/C [35]: 73.2% | viability, T/C [36]: 61.5%

O=C(c1cc(Cc2n[nH]c(=O)c3ccccc23)ccc1F)N1CCN(C(=O)C2CC2)CC1 + CN(C)c1ccc(Nc2c3ccc(NC(=O)CCN4CCCC4)cc3nc3cc(NC(=O)CCN4CCCC4)ccc23)cc1
IC50 (second compound 0.0316 µM): > 10 µM | IC50 (second compound 0.1 µM): > 10 µM | IC50 (second compound 0.316 µM): > 10 µM | IC50 (second compound 1 µM): > 10 µM | IC50 (second compound 3.16 µM): > 10 µM | IC50 (second compound 10 µM): > 10 µM | viability, T/C [1]: 111% | viability, T/C [2]: 95% | viability, T/C [3]: 101% | viability, T/C [4]: 97.3% | viability, T/C [5]: 85.1% | viability, T/C [6]: 61.4% | viability, T/C [7]: 108% | viability, T/C [8]: 96.7% | viability, T/C [9]: 99.3% | viability, T/C [10]: 93.1% | viability, T/C [11]: 79.6% | viability, T/C [12]: 60.8% | viability, T/C [13]: 104% | viability, T/C [14]: 91.6% | viability, T/C [15]: 93.6% | viability, T/C [16]: 88.2% | viability, T/C [17]: 82.6% | viability, T/C [18]: 65.1% | viability, T/C [19]: 88.5% | viability, T/C [20]: 91.9% | viability, T/C [21]: 98.2% | viability, T/C [22]: 74.5% | viability, T/C [23]: 70.7% | viability, T/C [24]: 59.3% | viability, T/C [25]: 90.7% | viability, T/C [26]: 91.7% | viability, T/C [27]: 92.7% | viability, T/C [28]: 74.1% | viability, T/C [29]: 75.2% | viability, T/C [30]: 57.1% | viability, T/C [31]: 75.8% | viability, T/C [32]: 75.2% | viability, T/C [33]: 67.9% | viability, T/C [34]: 67.4% | viability, T/C [35]: 63.5% | viability, T/C [36]: 51.7%

CCCS(=O)(=O)Nc1ccc(F)c(C(=O)c2c[nH]c3ncc(-c4ccc(Cl)cc4)cc23)c1F + CN(C)c1ccc(Nc2c3ccc(NC(=O)CCN4CCCC4)cc3nc3cc(NC(=O)CCN4CCCC4)ccc23)cc1
IC50 (second compound 0.0316 µM): 5.41 µM | IC50 (second compound 0.1 µM): 6.13 µM | IC50 (second compound 0.316 µM): 6.15 µM | IC50 (second compound 1 µM): 5.52 µM | IC50 (second compound 3.16 µM): 5.44 µM | IC50 (second compound 10 µM): 3.72 µM | viability, T/C [1]: 108% | viability, T/C [2]: 104% | viability, T/C [3]: 114% | viability, T/C [4]: 110% | viability, T/C [5]: 85% | viability, T/C [6]: 10% | viability, T/C [7]: 103% | viability, T/C [8]: 98% | viability, T/C [9]: 103% | viability, T/C [10]: 123% | viability, T/C [11]: 106% | viability, T/C [12]: 8.55% | viability, T/C [13]: 98.5% | viability, T/C [14]: 101% | viability, T/C [15]: 108% | viability, T/C [16]: 105% | viability, T/C [17]: 102% | viability, T/C [18]: 11.7% | viability, T/C [19]: 88.1% | viability, T/C [20]: 94.3% | viability, T/C [21]: 104% | viability, T/C [22]: 87.9% | viability, T/C [23]: 85.1% | viability, T/C [24]: 12.6% | viability, T/C [25]: 90% | viability, T/C [26]: 74.1% | viability, T/C [27]: 101% | viability, T/C [28]: 89.5% | viability, T/C [29]: 82.4% | viability, T/C [30]: 13.5% | viability, T/C [31]: 68.3% | viability, T/C [32]: 70% | viability, T/C [33]: 80.3% | viability, T/C [34]: 67.2% | viability, T/C [35]: 57.9% | viability, T/C [36]: 4.49%
